Test results reported in ChEMBL document CHEMBL1146891, “Preparation of 1-(3-aminobenzo[d]isoxazol-5-yl)-1H-pyrazolo[4,3-d]pyrimidin-7(6H)-ones as potent, selective, and efficacious inhibitors of coagulation factor Xa” (Bioorg Med Chem Lett, 2006).
Counter-ions that a name gives are not always drawn.

How the values were obtained:
Coagulation factor X [1] = molecular target: T1, Coagulation factor X (Homo sapiens, UniProt P00742); assay: Binding affinity to human f10a
Prothrombin = Prothrombin (Homo sapiens, UniProt P00734); assay: Binding affinity to human thrombin
Trypsin = Trypsin (Homo sapiens, UniProt P07477+P07478+P35030); assay: Binding affinity to human trypsin; assay type: protein assay
[2] = molecular target: Vitamin K-dependent protein C (Homo sapiens, UniProt P04070); assay: Binding affinity to human activated protein C
Chain of Vitamin K-dependent protein C (P04070 43-197 limits assumed): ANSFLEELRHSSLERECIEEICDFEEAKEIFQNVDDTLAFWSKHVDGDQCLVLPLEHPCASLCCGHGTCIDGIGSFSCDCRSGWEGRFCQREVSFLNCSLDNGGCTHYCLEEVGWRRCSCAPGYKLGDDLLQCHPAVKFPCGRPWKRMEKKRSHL
Chain of Vitamin K-dependent protein C (P04070 212-461 limits assumed): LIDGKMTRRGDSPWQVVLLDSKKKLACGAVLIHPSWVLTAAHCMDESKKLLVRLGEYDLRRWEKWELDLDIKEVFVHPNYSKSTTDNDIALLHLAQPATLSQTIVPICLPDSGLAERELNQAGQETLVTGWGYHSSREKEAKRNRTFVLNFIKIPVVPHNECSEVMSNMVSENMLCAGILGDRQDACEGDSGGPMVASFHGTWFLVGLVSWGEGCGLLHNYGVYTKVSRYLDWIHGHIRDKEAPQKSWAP

Coagulation factor IX = Coagulation factor IX (Homo sapiens, UniProt P00740); assay: Binding affinity to human f9a
Chain of Coagulation factor IX (P00740 47-191 limits assumed): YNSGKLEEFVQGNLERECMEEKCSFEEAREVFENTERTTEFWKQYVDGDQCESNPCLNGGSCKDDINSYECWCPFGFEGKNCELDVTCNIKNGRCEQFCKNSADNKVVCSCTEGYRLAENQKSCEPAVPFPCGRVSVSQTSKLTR
Chain of Coagulation factor IX (P00740 227-461 limits assumed): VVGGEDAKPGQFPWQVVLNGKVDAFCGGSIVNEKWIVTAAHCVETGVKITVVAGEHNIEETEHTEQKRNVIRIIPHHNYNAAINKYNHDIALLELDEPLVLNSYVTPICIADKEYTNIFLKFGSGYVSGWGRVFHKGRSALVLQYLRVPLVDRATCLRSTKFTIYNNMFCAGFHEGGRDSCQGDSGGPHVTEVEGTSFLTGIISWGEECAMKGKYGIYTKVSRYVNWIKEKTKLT

Plasminogen = Plasminogen (Homo sapiens, UniProt P00747); assay: Binding affinity to human plasmin
Chain of Plasminogen (P00747 97-580 limits assumed): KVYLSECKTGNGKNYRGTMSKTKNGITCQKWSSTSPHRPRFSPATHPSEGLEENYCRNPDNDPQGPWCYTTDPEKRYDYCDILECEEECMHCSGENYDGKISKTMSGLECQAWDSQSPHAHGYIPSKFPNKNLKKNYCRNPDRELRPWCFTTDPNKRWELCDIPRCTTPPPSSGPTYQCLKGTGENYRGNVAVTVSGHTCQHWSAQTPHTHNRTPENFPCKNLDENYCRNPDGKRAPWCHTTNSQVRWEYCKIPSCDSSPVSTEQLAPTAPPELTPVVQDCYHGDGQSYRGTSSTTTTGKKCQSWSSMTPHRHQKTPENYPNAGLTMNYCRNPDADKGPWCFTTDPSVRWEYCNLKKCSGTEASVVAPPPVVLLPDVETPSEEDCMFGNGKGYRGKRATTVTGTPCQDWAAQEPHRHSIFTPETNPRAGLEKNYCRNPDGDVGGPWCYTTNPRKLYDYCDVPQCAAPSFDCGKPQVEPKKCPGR
Chain of Plasminogen (P00747 581-810 limits assumed): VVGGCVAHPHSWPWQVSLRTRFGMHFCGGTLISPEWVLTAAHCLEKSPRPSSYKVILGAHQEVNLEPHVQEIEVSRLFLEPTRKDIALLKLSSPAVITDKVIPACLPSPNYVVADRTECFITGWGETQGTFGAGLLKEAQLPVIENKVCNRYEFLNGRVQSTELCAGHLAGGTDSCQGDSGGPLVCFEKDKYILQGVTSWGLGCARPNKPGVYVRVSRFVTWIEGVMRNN

[3] = molecular target: Tissue-type plasminogen activator (Homo sapiens, UniProt P00750); assay: Binding affinity to human tPA
Chain of Tissue-type plasminogen activator (P00750 whole entry): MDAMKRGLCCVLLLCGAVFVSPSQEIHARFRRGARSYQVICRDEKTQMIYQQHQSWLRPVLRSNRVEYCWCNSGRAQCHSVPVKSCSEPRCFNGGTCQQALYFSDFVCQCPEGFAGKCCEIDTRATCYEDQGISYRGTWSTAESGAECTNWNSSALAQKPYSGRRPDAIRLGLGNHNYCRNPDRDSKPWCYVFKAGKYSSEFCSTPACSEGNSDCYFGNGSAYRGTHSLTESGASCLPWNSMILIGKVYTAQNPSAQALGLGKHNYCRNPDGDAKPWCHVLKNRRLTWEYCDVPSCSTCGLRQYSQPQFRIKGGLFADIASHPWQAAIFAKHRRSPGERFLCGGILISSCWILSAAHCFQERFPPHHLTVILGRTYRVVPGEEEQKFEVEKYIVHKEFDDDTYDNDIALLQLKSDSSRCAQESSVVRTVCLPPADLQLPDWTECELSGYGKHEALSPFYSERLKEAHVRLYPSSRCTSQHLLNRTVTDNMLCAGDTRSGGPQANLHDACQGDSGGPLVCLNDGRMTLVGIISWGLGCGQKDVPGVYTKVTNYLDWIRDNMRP

[4] = molecular target: Urokinase-type plasminogen activator (Homo sapiens, UniProt P00749); assay: Binding affinity to human urokinase
Chymotrypsinogen B = Chymotrypsinogen B (Homo sapiens, UniProt P17538); assay: Binding affinity to human chymotrypsin
Chain of Chymotrypsinogen B (P17538 34-164 limits assumed, other chains not shown): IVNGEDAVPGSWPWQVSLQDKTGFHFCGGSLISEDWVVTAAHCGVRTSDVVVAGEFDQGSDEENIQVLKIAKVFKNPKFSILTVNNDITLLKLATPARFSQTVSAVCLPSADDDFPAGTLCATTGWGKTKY
Chain of Chymotrypsinogen B (P17538 167-263 limits assumed, other chains not shown): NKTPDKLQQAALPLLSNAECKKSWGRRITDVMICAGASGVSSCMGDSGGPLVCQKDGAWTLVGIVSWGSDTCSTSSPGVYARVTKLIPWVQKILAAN

Coagulation factor X [5] = molecular target: T1, Coagulation factor X; assay: Anticoagulant activity in human plasma measured as activated partial thromboplastin time; assay type: functional, cell-free
[6] = molecular target: T2, Coagulation factor VII/tissue factor (Homo sapiens) (UniProt P08709+P13726); assay: Anticoagulant activity in human plasma measured as prothrombin time; assay type: functional, cell-free
[7] = Clearance in dog at 0.5 mg/kg, iv and 0.2 mg/kg, po; assay type: ADME, organism-based, Canis lupus familiaris; details: in vivo
[8] = Volume of distribution in dog at 0.5 mg/kg, iv and 0.2 mg/kg, po; assay type: ADME, organism-based, Canis lupus familiaris; details: in vivo, read-out: Vdss
[9] = Half life in dog at 0.5 mg/kg, iv and 0.2 mg/kg, po; assay type: ADME, organism-based, Canis lupus familiaris; details: in vivo
[10] = Bioavailability in dog at 0.5 mg/kg, iv and 0.2 mg/kg, po; assay type: ADME, organism-based, Canis lupus familiaris; details: in vivo
[11] = Apparent permeability in Caco-2 cells; assay type: ADME, cell-based; details: human
[12] = molecular target: T2, Coagulation factor VII/tissue factor (Homo sapiens); assay: Anticoagulant activity in rabbit plasma measured as prothrombin time; assay type: functional, cell-free; details: Oryctolagus cuniculus, target entry is the homologue from another species
[13] = Protein binding in rabbit plasma; assay type: ADME, organism-based, Oryctolagus cuniculus; details: read-out: PPB (converted)
Homo sapiens [14] = species: Homo sapiens; assay: Selectivity for f10a over chymotrypsin
[15] = molecular target: Thrombin and coagulation factor X (Homo sapiens) (UniProt P00734+P00742); assay: Selectivity for f10a over thrombin; assay type: protein assay
Chain of Thrombin and coagulation factor X (Homo sapiens) (P00742 whole entry, looked up, other chains not shown): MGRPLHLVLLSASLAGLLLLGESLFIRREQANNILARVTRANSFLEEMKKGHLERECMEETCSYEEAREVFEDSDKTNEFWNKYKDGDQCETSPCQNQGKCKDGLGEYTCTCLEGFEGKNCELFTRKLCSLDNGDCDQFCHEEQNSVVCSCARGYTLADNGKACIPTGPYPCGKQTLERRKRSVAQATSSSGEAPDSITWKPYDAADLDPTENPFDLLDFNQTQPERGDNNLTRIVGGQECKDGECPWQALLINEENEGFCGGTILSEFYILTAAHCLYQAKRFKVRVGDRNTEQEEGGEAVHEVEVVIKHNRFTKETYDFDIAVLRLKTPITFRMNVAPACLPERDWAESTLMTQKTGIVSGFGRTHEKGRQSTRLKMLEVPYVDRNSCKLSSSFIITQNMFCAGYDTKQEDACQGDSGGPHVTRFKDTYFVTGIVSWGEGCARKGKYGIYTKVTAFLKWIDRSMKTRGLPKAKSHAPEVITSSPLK

Homo sapiens [16] = species: Homo sapiens; assay: Selectivity for f10a over trypsin
Homo sapiens [17] = species: Homo sapiens; assay: Selectivity for f10a over activated protein C
[18] = molecular target: Coagulation factor VII and X (Homo sapiens) (UniProt P00742+P08709); assay: Selectivity for f10a over f7a; assay type: protein assay
Homo sapiens [19] = species: Homo sapiens; assay: Selectivity for f10a over plasmin
Homo sapiens [20] = species: Homo sapiens; assay: Selectivity for f10a over tPA
[21] = molecular target: Coagulation factor X and plasma kallikrein (Homo sapiens) (UniProt P03952+P00742); assay: Selectivity for f10a over plasma kallikrein; assay type: cell-free
Chain of Coagulation factor X and plasma kallikrein (Homo sapiens) (P00742 whole entry, looked up): as the sequence (P00742 whole entry, looked up, other chains not shown) above
Chain of Coagulation factor X and plasma kallikrein (Homo sapiens) (P03952 whole entry, looked up): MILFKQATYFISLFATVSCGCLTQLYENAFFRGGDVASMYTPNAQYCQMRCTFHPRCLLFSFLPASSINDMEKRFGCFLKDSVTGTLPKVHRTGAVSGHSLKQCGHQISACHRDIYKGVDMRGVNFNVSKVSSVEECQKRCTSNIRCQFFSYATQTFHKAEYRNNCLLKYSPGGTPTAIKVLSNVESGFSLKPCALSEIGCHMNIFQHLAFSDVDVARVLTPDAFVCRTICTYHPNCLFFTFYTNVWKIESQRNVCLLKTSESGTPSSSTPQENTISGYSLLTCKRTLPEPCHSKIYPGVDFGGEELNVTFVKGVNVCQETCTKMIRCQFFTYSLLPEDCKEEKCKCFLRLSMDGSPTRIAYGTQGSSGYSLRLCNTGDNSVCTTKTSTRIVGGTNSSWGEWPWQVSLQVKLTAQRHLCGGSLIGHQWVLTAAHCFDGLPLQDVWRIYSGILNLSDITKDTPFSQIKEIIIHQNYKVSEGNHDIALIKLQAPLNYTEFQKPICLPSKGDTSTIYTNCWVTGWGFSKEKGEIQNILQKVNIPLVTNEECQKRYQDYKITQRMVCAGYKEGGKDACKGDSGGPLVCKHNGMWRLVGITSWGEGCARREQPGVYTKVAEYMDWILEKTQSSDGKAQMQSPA

Homo sapiens [22] = species: Homo sapiens; assay: Selectivity for f10a over urokinase

T1 sequence (P00742 41-179 limits assumed): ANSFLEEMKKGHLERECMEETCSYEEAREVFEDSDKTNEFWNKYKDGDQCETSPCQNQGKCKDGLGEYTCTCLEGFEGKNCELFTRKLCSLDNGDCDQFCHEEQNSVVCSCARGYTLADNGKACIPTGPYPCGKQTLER
T1 sequence (P00742 235-488 limits assumed): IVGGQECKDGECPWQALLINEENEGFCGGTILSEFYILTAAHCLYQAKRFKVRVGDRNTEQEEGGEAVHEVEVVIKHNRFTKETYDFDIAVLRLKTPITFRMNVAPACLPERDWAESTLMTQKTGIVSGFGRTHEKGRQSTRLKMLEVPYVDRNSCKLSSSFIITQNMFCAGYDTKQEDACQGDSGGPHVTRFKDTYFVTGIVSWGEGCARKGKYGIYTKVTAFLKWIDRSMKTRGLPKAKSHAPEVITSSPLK

In the case of `Nc1noc2ccc(-n3nc(C(F)(F)F)c4c3C(=O)N(c3ccc(-c5ccccc5CN5CC[C@@H](O)C5)cc3)CN4)cc12` [listing 1 of 2 here], the Ki (Coagulation factor X [1]) is reported as 0.21 nM, the Ki (Prothrombin) is reported as 130 nM and the Ki (Trypsin) is reported as greater than 4200 nM. The Ki [2] was greater than 20000 nM, the Ki (Coagulation factor IX) was greater than 41000 nM and the Ki (Plasminogen) was greater than 15000 nM. The Ki [3] was greater than 33000 nM, the Ki [4] was greater than 13000 nM and the Ki (Chymotrypsinogen B) was 3240 nM.

`Cc1nn(-c2ccc3onc(N)c3c2)c2c(=O)n(-c3ccc(-c4ccccc4CN(C)C(C)C)cc3)c(C)nc12` showed a Ki (Coagulation factor X [1]) of 0.35 nM, a 2aPTT (Coagulation factor X [5]) of 2 µM and a 2PT [6] of 4 µM.

Compound `CN(C)Cc1ccccc1-c1ccc(-c2nnc3c(C(F)(F)F)nn(-c4ccc5onc(N)c5c4)c3c2O)cc1` has a Ki (Coagulation factor X [1]) of 5.5 nM.

For `Cc1nn(-c2ccc3onc(N)c3c2)c2c(=O)n(-c3ccc(-c4ccccc4CN4CC[C@@H](O)C4)cc3)c(C)nc12.O=C(O)C(F)(F)F`, the clearance [7] was 20 mL/min/kg, the Vd [8] was 6.6 L/kg and the half-life [9] was 3.8 h. It also gave a bioavailability [10] of 48% and a Papp [11] of 4.7 ×10⁻⁶ cm/s.

Work on `Cc1nc2c(C(F)(F)F)nn(-c3ccc4onc(N)c4c3)c2c(=O)n1-c1ccc(-c2ccccc2CN(C)C)cc1` yielded a 2aPTT (Coagulation factor X [5]) of 9.2 µM, a 2PT [6] of 4.1 µM and a 2PT [12] of 2.7 µM.

`Cc1nc2c(C(F)(F)F)nn(-c3ccc4onc(N)c4c3)c2c(=O)n1-c1ccc(-c2ccccc2CN2CC[C@@H](O)C2)cc1` [listing 1 of 2 here] gave a 2aPTT (Coagulation factor X [5]) of 28 µM and a 2PT [6] of 6.6 µM.

With `CN(C)Cc1nccn1-c1ccc(NC(=O)c2cc(C(F)(F)F)nn2-c2ccc3onc(N)c3c2)c(F)c1` [RAZAXABAN HYDROCHLORIDE] the fraction unbound [13] was 0.07.

With `Nc1noc2ccc(-n3nc(C(F)(F)F)c4[nH]c(=O)n(-c5ccc(-c6ccccc6CN6CCC(O)CC6)cc5)c(=O)c43)cc12` the Ki (Coagulation factor X [1]) was 0.22 nM, the 2aPTT (Coagulation factor X [5]) was 352 µM and the 2PT [6] was 92.6 µM.

`Cc1nc2c(C(F)(F)F)nn(-c3ccc4onc(N)c4c3)c2c(=O)n1-c1ccc(-c2ccccc2CN2CC[C@@H](O)C2)cc1.O=C(O)C(F)(F)F` gave a clearance [7] of 10 mL/min/kg, a Vd [8] of 6.6 L/kg and a half-life [9] of 8.4 h. It also gave a bioavailability [10] of 58%.

`Nc1noc2ccc(-n3nc(C(F)(F)F)c4c3C(=O)N(c3ccc(-c5ccccc5CN5CC[C@@H](O)C5)cc3)CN4)cc12.O=C(O)C(F)(F)F` showed a clearance [7] of 16.3 mL/min/kg, a Vd [8] of 4.2 L/kg and a half-life [9] of 4.3 h. It also gave a bioavailability [10] of 27% and a Papp [11] of 3.9 ×10⁻⁶ cm/s.

Work on `CN(C)Cc1ccccc1-c1ccc(-c2cnc3c(C(F)(F)F)nn(-c4ccc5onc(N)c5c4)c3c2O)cc1` yielded a Ki (Coagulation factor X [1]) of 3.2 nM.

`Cc1nc2c(C(F)(F)F)nn(-c3ccc4onc(N)c4c3)c2c(=O)n1-c1ccc(-c2ccccc2CNCC2CC2)cc1` showed a Ki (Coagulation factor X [1]) of 0.5 nM, a 2aPTT (Coagulation factor X [5]) of 18.6 µM and a 2PT [6] of 10.9 µM.

With `Cc1nn(-c2ccc3onc(N)c3c2)c2c(=O)n(-c3ccc(-c4ccccc4CN(C)C)cc3)c(C)nc12.O=C(O)C(F)(F)F` the clearance [7] was 28.3 mL/min/kg, the Vd [8] was 8.9 L/kg and the half-life [9] was 4.2 h. The bioavailability [10] was 23% and the Papp [11] was 6.1 ×10⁻⁶ cm/s.

With `Cc1nn(-c2ccc3onc(N)c3c2)c2c(=O)n(-c3ccc(-c4ccccc4CN4CC[C@H](O)C4)cc3)cnc12` the Ki (Coagulation factor X [1]) was 0.5 nM, the 2aPTT (Coagulation factor X [5]) was 4.3 µM and the 2PT [6] was 2.1 µM.

`Cc1nn(-c2ccc3onc(N)c3c2)c2c(=O)n(-c3ccc(-c4ccccc4CN(C)C)cc3)c(C)nc12` showed a 2aPTT (Coagulation factor X [5]) of 1.7 µM, a 2PT [6] of 1.4 µM and a 2PT [12] of 1.8 µM. The Ratio Ki (Homo sapiens [14]) was greater than 1000, the Ratio Ki [15] was greater than 500 and the Ratio Ki (Homo sapiens [16]) was greater than 1000. For the same compound, the Ratio Ki (Homo sapiens [17]) was greater than 1000, the Ratio Ki [18] was greater than 1000 and the Ratio Ki (Homo sapiens [19]) was greater than 1000. The Ratio Ki (Homo sapiens [20]) was greater than 1000, the Ratio Ki [21] was greater than 1000 and the Ratio Ki (Homo sapiens [22]) was greater than 1000.

In the case of `Cc1nn(-c2ccc3onc(N)c3c2)c2c(=O)n(-c3ccc(-c4ccccc4CNCC4CC4)cc3)cnc12`, the Ki (Coagulation factor X [1]) is reported as 1.7 nM, the 2aPTT (Coagulation factor X [5]) is reported as 8.1 µM and the 2PT [6] is reported as 3.1 µM.

Compound `Cc1nn(-c2ccc3onc(N)c3c2)c2c(=O)n(-c3ccc(-c4ccccc4CN(C)C)cc3)cnc12` has a 2aPTT (Coagulation factor X [5]) of 2.1 µM and a 2PT [6] of 1.3 µM.

In the case of `CCOC(=O)c1nn(-c2ccc3onc(N)c3c2)c2c(=O)n(-c3ccc(-c4ccccc4CN4CCCC4)cc3)cnc12`, the Ki (Coagulation factor X [1]) is reported as 1.6 nM, the 2aPTT (Coagulation factor X [5]) is reported as 1.6 µM and the 2PT [6] is reported as 2.3 µM.

Compound `Nc1noc2ccc(-n3nc(C(F)(F)F)c4[nH]c(=O)n(-c5ccc(-c6ccccc6CN6CC[C@@H](O)C6)cc5)c(=O)c43)cc12` has a Ki (Coagulation factor X [1]) of 0.11 nM, a 2aPTT (Coagulation factor X [5]) of 74.5 µM and a 2PT [6] of 24.1 µM.

With `Cc1nn(-c2ccc3onc(N)c3c2)c2c(=O)n(-c3ccc(-c4ccccc4CN(C)C)cc3)cnc12.O=C(O)C(F)(F)F` the clearance [7] was 55 mL/min/kg, the Vd [8] was 9.5 L/kg and the half-life [9] was 2.5 h. The bioavailability [10] was 2% and the Papp [11] was 11 ×10⁻⁶ cm/s.

Compound `Nc1noc2ccc(-n3nc(C(F)(F)F)c4c3C(=O)N(c3ccc(-c5ccccc5CN5CC[C@@H](O)C5)cc3)CN4)cc12` [listing 2 of 2 here] has a 2aPTT (Coagulation factor X [5]) of 2.9 µM, a 2PT [6] of 1.6 µM and a Ratio Ki (Homo sapiens [14]) greater than 1000. For the same compound, the Ratio Ki [15] was greater than 500, the Ratio Ki (Homo sapiens [16]) was greater than 1000 and the Ratio Ki (Homo sapiens [17]) was greater than 1000. It also gave a Ratio Ki [18] greater than 1000, a Ratio Ki (Homo sapiens [19]) greater than 1000 and a Ratio Ki (Homo sapiens [20]) greater than 1000. It also gave a Ratio Ki [21] greater than 1000 and a Ratio Ki (Homo sapiens [22]) greater than 1000.

Compound `CN(C)Cc1nccn1-c1ccc(-n2c(=O)[nH]c3c(C(F)(F)F)nn(-c4ccc5onc(N)c5c4)c3c2=O)c(F)c1` has a Ki (Coagulation factor X [1]) of 0.35 nM, a 2aPTT (Coagulation factor X [5]) of 37.8 µM and a 2PT [6] of 14.9 µM.

`CN(C)Cc1ccccc1-c1ccc(N2CNc3c(C(F)(F)F)nn(-c4ccc5onc(N)c5c4)c3C2=O)cc1` gave a 2aPTT (Coagulation factor X [5]) of 1.7 µM.

Compound `Cc1nc2c(C(F)(F)F)nn(-c3ccc4onc(N)c4c3)c2c(=O)n1-c1ccc(-c2ccccc2CN2CC[C@@H](O)C2)cc1` [listing 2 of 2 here] has a Ki (Coagulation factor X [1]) of 0.18 nM.

`Cc1nn(-c2ccc3onc(N)c3c2)c2c(=O)n(-c3ccc(-c4ccccc4CNC(C)C)cc3)cnc12` showed a Ki (Coagulation factor X [1]) of 1.5 nM, a 2aPTT (Coagulation factor X [5]) of 3 µM and a 2PT [6] of 1.9 µM.

In the case of `Cc1nc2c(C(F)(F)F)nn(-c3ccc4onc(N)c4c3)c2c(=O)n1-c1ccc(-c2ccccc2CN(C)C)cc1.O=C(O)C(F)(F)F`, the clearance [7] is reported as 11.7 mL/min/kg, the Vd [8] is reported as 13 L/kg and the half-life [9] is reported as 14 h. It also gave a bioavailability [10] of 63% and a Papp [11] of 19 ×10⁻⁶ cm/s.

For `Nc1nc2c(C(F)(F)F)nn(-c3ccc4onc(N)c4c3)c2c(O)c1-c1ccc(-c2ccccc2CN2CCC(O)CC2)cc1`, the Ki (Coagulation factor X [1]) was 0.77 nM, the 2aPTT (Coagulation factor X [5]) was 638 µM and the 2PT [6] was 230 µM.

For `Cc1nn(-c2ccc3onc(N)c3c2)c2c(=O)n(-c3ccc(-c4ccccc4CN4CCCC4)cc3)cnc12`, the Ki (Coagulation factor X [1]) was 1.3 nM, the 2aPTT (Coagulation factor X [5]) was 1.6 µM and the 2PT [6] was 1.1 µM.

With `Cc1nn(-c2ccc3onc(N)c3c2)c2c(=O)n(-c3ccc(-c4ccccc4CN4CC[C@@H](O)C4)cc3)c(C)nc12` the 2aPTT (Coagulation factor X [5]) was 5.8 µM, the 2PT [6] was 2.5 µM and the 2PT [12] was 3.4 µM. For the same compound, the Ratio Ki (Homo sapiens [14]) was greater than 1000, the Ratio Ki [15] was greater than 500 and the Ratio Ki (Homo sapiens [16]) was greater than 1000. The Ratio Ki (Homo sapiens [17]) was greater than 1000, the Ratio Ki [18] was greater than 1000 and the Ratio Ki (Homo sapiens [19]) was greater than 1000. It also gave a Ratio Ki (Homo sapiens [20]) greater than 1000, a Ratio Ki [21] greater than 1000 and a Ratio Ki (Homo sapiens [22]) greater than 1000.
